Calls of active or inactive are those of the source. The calls are words filed in the database; no cut-off is given here.

Biological target in the first test: not listed separately
Kind of test: Displacement of [3H]flumazenil from GABAA receptor in Wistar rat cortical membrane preincubated for 24 hrs. Format: cell membranes. For orientation: Displacement assays read how much labelled ligand stays bound in the presence of the test substance.
As for `COc1ccc(-c2ccc3cc(Br)ccc3[o+]2)cc1`, the Ki stood at 0.066 µM.
`COc1ccc(-c2ccc3cc(OC)ccc3[o+]2)cc1`: the inhibition constant (Ki) stood at 0.018 µM.
The compound `COc1ccc(C(=O)/C=C/c2cc(OC)ccc2O)cc1` showed an inhibitory constant (Ki) of 0.028 µM.

Biological target in another test: not listed separately
The test is described as follows: Displacement of [3H]flumazenil from GABAA receptor in Wistar rat cortical membrane preincubated for 15 mins. Format: cell membranes.
In the case of `COc1ccc(-c2ccc3cc(Br)ccc3[o+]2)cc1`, the Ki turned out to be 0.066 µM.
Compound `COc1ccc(-c2ccc3cc(OC)ccc3[o+]2)cc1` had a Ki of 0.018 µM.

For a further test, the species on record is Rattus norvegicus. The test is described as follows: Displacement of [3H]flumazenil from GABAA receptor in Wistar rat cortical membrane at 10 uM. In kind it is cell membranes.
Regarding `COc1ccc2[o+]c(-c3ccc(OC)c(OC)c3)ccc2c1`, the outcome was inactive.
In the case of `COc1cc(-c2ccc3ccccc3[o+]2)cc(OC)c1OC`, the result was inactive.
Consider `Oc1ccc(-c2ccc3cccc(O)c3[o+]2)cc1`, for which the outcome was inactive.
On to `COc1ccc(-c2ccc3ccccc3[o+]2)cc1OC`, for which the outcome was inactive.
Regarding `Oc1ccc(-c2ccc3ccc(O)c(O)c3[o+]2)cc1`, the outcome was inactive.

Biological target in the next test: not listed separately
The test is described as follows: Displacement of [3H]flumazenil from GABAA receptor in Wistar rat cortical membrane. Format: cell membranes.
As to `COc1ccc2[o+]c(-c3ccc(O)cc3)ccc2c1`, the Ki was determined as 0.16 µM.
`Oc1ccc(-c2ccc3ccc(O)cc3[o+]2)cc1` gave a Ki of 0.28 µM.
The same measure, in the same setting: in the case of `Oc1ccc(-c2ccc3cc(O)ccc3[o+]2)cc1` it was 1.5 µM.
`COc1ccc(-c2ccc3ccccc3[o+]2)cc1` displayed a Ki of 0.48 µM.
`COc1ccc(-c2ccc3cc(O)ccc3[o+]2)cc1` displayed a Ki of 0.32 µM.
`Oc1ccc2ccc(-c3ccccc3)[o+]c2c1` displayed a Ki of 0.26 µM.
Still for that read-out and setting: in the case of `COc1ccc(-c2ccc3cc(Br)ccc3[o+]2)cc1` it was 0.14 µM.
On to `COc1ccc2ccc(-c3ccccc3)[o+]c2c1`, for which the inhibition constant Ki stood at 1.8 µM.
With `COc1ccc2[o+]c(-c3ccccc3)ccc2c1`, the Ki was 0.18 µM.
`COc1ccc(-c2ccc3cc(OC)c(O)cc3[o+]2)cc1`: the Ki was 7.8 µM.
`COc1ccc(-c2ccc3cc(OC)ccc3[o+]2)cc1` gave an inhibition constant (Ki) of 0.06 µM.
Regarding `COc1ccc(-c2ccc3ccc(OC)cc3[o+]2)cc1`, the Ki was 1.2 µM.

A word on the Ki: it is the equilibrium dissociation constant of an inhibitor or competing ligand from its target. Read a low Ki as tighter binding.

For the origin of these results see ChEMBL document CHEMBL1140041, “Flavylium salts as in vitro precursors of potent ligands to brain GABA-A receptors” (Bioorg Med Chem Lett, 2008).
